From patent US20230286995A1, “METABOLICALLY STABLE PYRIMIDINYL DIHYDROQUINOXALINONES AS TUBULIN POLYMERIZATION INHIBITORS” (UNIVERSITY OF TENNESSEE RESEARCH FOUNDATION, priority 2022, published 2023)
Where two headings read alike, the source gives them in different places.

Key:
PC3/TxR = assay: Cytotoxicity assay (MTS, 72 h); assay type: cell-based; conditions: Homo sapiens, Table 6, paclitaxel-resistant, read-out: IC50 (nM) Prostate cancer PC3/TxR
Protocol: Biology. Cell culture and Reagents. […] MIA Paca-2 pancreatic cancer cells were cultured in media also supplemented with 2.5% horse serum. PANC-1 and PC-3 were cultured in RPMI 1640 medium (Gibco, Carlsbad, Calif.) supplemented with 10% FBS and 1% antibiotic/antimycotic mixture. […] For biological experiments, pyrimidine dihydroquinoxalinone derivatives were dissolved in DMSO to create 20 mM stock solutions and stored at −20° C. until use.
(§1) Cytotoxicity Assay. […] Each experiment consisted of four replicates.

PANC-1 = assay: Cytotoxicity assay (MTS, 72 h); assay type: cell-based; conditions: Homo sapiens, Table 6, read-out: IC50 (nM) Pancreatic cancer PANC-1
Protocol: Mia PaCa-2 and PANC-1 cells were seeded in 96-well plates at 4000 and 5000 cells per well, respectively.
as §1

Mia PaCa-2 = assay: Cytotoxicity assay (MTS, 72 h); assay type: cell-based; conditions: Homo sapiens, Table 6, read-out: IC50 (nM) Pancreatic cancer Mia PaCa-2
in vitro [1] = conditions: human, liver microsomes
MDA-MB-231 = assay: Cytotoxicity assay (MTS, 72 h); assay type: cell-based; conditions: Homo sapiens, MDA-MB-231, read-out: IC50 (nM) Breast Cancer MDA-MB-231; Table 6
M14 = assay: Cytotoxicity assay (MTS, 72 h); conditions: Homo sapiens, M14, read-out: IC50 (nM) Melanoma Cancer M14
in vitro [2] = conditions: mouse, liver microsomes
A-253 cells = assay: Colony formation, head and neck cancer; assay type: cell-based, human
Protocol: (§2) FIG. 41A illustrates the effect of compound 12k on colony formation in the A-253 cell line. FIG. 41B illustrates the effect of compound 12k on colony formation in the Detroit 562 cell line. Colony formation experiments were performed as described elsewhere herein.

Detroit 562 cells = assay: Colony formation, head and neck cancer; assay type: cell-based, human
Protocol: as §2

A-253 and Detroit 562 [3] = assay: Cytotoxicity in head and neck cancer cell lines; assay type: cell-based; conditions: Homo sapiens; FIG. 39A; read-out: IC50 values, range over A-253 and Detroit 562
Protocol: A panel of dihydroquinoxalinones were tested in two head and neck cancer cell lines, A-253 and Detroit 562. A-253 cells are a human salivary epidermoid carcinoma cell line, whereas Detroit 562 is a head and neck squamous cell carcinoma (HNSCC). Oral cancer is the most common type of head and neck cancer and more than 90% of oral cancers are either oral or oropharyngeal squamous cell carcinoma (SCC). A major clinical dilemma is chemotherapy efficiency targeted for head and neck squamous cell carcinoma (HNSCC). The inability to successfully complete cancer treatment utilizing a standard surgical approach due to an advanced stage of HNSCC and/or resistance of SCC cells to conventional chemotherapy and/or radiotherapy leads to a continuous search for new compounds with cytostatic activity and minor side effects.
FIGS. 39B and 39C illustrate the graphical representation of the data. […] For example, at treatment levels as low of 0.5 nM, 12k was able to prevent head and neck cancer cell proliferation almost completely, whereas it required 5 nM of 17ya to achieve similar antiproliferation.

PC3 = assay: Cytotoxicity assay (MTS, 72 h); assay type: cell-based; conditions: Homo sapiens, PC-3; Table 6; read-out: IC50 (nM) Prostate cancer PC3
From the text: as §1

[4] = Pharmacokinetic evaluation of 12k in mice; assay type: in vivo, NSG mice; conditions: female, mouse, plasma; for half-life: NSG
Protocol: Female NSG mice at 7 to 9 weeks of age were used in pharmacokinetic studies. Mice received a single dose of 4 mg/kg 12k intravenously (50% PEG300:50% saline) or 10 mg/kg orally (90% PEG300:10% saline). Blood of animals (n=3) was collected in heparinized tubes via terminal intracardiac blood collection at predefined time points (0.08, 0.25, 0.5, 1, 3, 6, 12, 24 h) and plasma was immediately separated by centrifugation (10,000 rpm for 10 min at 4° C.) and stored at −80° C. until analysis.

[5] = test system: PC-3/TxR xenograft tumors; assay: Subcutaneous PC-3/TxR xenograft model; assay type: in vivo
A-253 and Detroit 562 [6] = assay: Western blot of apoptosis markers, head and neck cancer; assay type: cell-based, human; conditions: 100 nM, 72 hours
From the text: FIG. 42A illustrates that compound 12k induces apoptosis in the A-253 cell line. FIG. 42B illustrates that compound 12k induces apoptosis in the Detroit 562 cell line.

A-253 and Detroit 562 [7] = assay: Head and neck cancer cell proliferation (confluence %)
in vivo = conditions: male, NSG, mouse, brain/plasma, iv, 4 mg/kg
MDA-MB-453 = assay: Cytotoxicity assay (MTS, 72 h); assay type: cell-based, human; conditions: Homo sapiens, MDA-MB-453; Table 6; read-out: IC50 (nM) Breast Cancer MDA-MB-453
A375 = assay: Cytotoxicity assay (MTS, 72 h); conditions: Homo sapiens, A-375, read-out: IC50 (nM) Melanoma Cancer A375, Table 6;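 further: compounds tested from 0.1 nM up to 3 µM in four replicate wells, with absorbance read at 490 nm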
[8] = intravenous (4 mg/kg), NSG mice

## CNc1nc2c(c(N3CC(=O)Nc4cc(OC)ccc43)n1)CCC2 [Compound 12k, 7-methoxy-4-(2-(methylamino)-6,7-dihydro-5H-cyclopenta[d]pyrimidin-4-yl)-3,4-dihydroquinoxalin-2(1H)-one]
PC3/TxR
  IC50: 0.2 nM
PANC-1
  IC50: 2.8 ± 0.5 nM
Mia PaCa-2
  IC50: 2.9 ± 0.5 nM
In vitro [1]
  half-life at 1 μg/mL: > 5 h
  microsomal CLint at 1 μg/mL: < 2.31 µL/min/mg
MDA-MB-231
  IC50: 2.2 ± 1.5 nM
M14
  IC50: 0.7 ± 0.1 nM
In vitro [2]
  half-life at 1 μg/mL: > 5 h
  microsomal CLint at 1 μg/mL: < 2.31 µL/min/mg
A-253 cells
  concentration with near complete inhibition of colony formation: 1 nM
Detroit 562 cells
  concentration with near complete inhibition of colony formation: 2 nM
A-253 and Detroit 562 [3]
  IC50: 0.52 to 3.2 nM
PC3
  IC50: 0.5 ± 0.1 nM
[4]; intravenous, 4 mg/kg, text b345, read-out: in vivo half-life
  half-life: 3.97 h
[4]; iv, 4 mg/kg, intravenous (4 mg/kg), NSG mice, read-out: t1/2 (converted)
  half-life: 3.97 h
[4]; po, 10 mg/kg, oral (10 mg/kg), NSG mice, read-out: t1/2 (converted)
  half-life: 5.97 h
[4]; [8]
  AUC: 2890 ng·h/mL
  Cmax: 1250 ng/mL
  Tmax: 0.0833 h
[4]; oral (10 mg/kg), NSG mice
  AUC: 136 ng·h/mL
  Cmax: 78.3 ng/mL
  Tmax: 0.167 h
  bioavailability: 2.02%
[5]; 2.5 mg/kg i.v., 2 doses/week
  inhibition of tumor growth in volume (ex vivo) vs control: approximately 85.6%
  reduction of tumor weight vs control: 84.5%
[5]; 2.5 mg/kg twice per week
  tolerability / body weight: well tolerated
A-253 and Detroit 562 [6]
  apoptotic markers c-PARP and c-cas 3: elevated levels of apoptotic markers
A-253 and Detroit 562 [7]; A-253 and Detroit 562
  potency of 12k relative to compound 17ya: ~10 fold
A-253 and Detroit 562 [7]; confluence over 62 h
  treatment level preventing cell proliferation almost completely: 0.5 nM
In vivo
  Kp at 1 h: 0.45
MDA-MB-453
  IC50: 0.9 ± 0.2 nM
A375
  IC50: 1.2 ± 0.2 nM
